Patent US11371097B2, “Articles for diagnosis of liver fibrosis” (THE GOVERNMENT OF THE UNITED STATES, as represented by THE …, priority 2015, dated 2022)
Where “and” joins values, the source holds several entries; their conditions need not be identical. Equal entries are not always repeated.

Assays:
Psma5 = assay: qPCR of liver RNA: Psma5; assay type: in vivo, Male Sprague-Dawley rats; conditions: high-dose group with vacuolation pathology; p<0.05
Procedure: Working on dry ice, a portion (−10 mg) of flash-frozen liver was cut from each sample and transferred to a clean, labeled tube. Total RNA was then isolated using Qiagen's miRNeasy 96 kit (Qiagen, Valencia, Calif.) following manufacturer's instructions with a final elution volume of −150 μL (2×75 μL). The quality and quantity of RNA samples were evaluated with a 2100 Bioanalyzer (Agilent Technologies, Santa Clara, Calif.), using the Agilent RNA 6000 Nano Reagents and a multiwell NanoDrop 8000 spectrophotometer (Thermo Fisher Scientific, Waltham, Mass.).
Using 1 μg RNA input, cDNA was generated using a QuantiTect Reverse Transcription kit (Qiagen, Valencia, Calif.) following manufacturer's instructions. Applied Biosystems SYBR Green Master Mix was used in a 20 μL qPCR reaction with 2 μL of cDNA template and a 2.tM final concentration of each primer. A total of five genes were targeted (Gapdh, Actb, Timp1, Tgfbl, and Psma5), two of which served as the endogenous controls (Gapdh and Actb). An Applied Biosystems 7500 Real-Time PCR System (Applied Biosystems, Foster City, Calif.) was used for thermal cycling and fluorescence detection using the default settings for Quantitation-Comparative CT with SYBR® . . . Green Reagents which uses the following scheme: 95° C. for 10 minutes followed by 40 cycles of: 95° C. for 15 seconds, 60° C. for 1 minute, and a fluorescence signal read. […]

[1] = test system: 67 genes on the fibrosis gene panel; assay: Multiplexed fibrosis gene panel (QuantiGene 2.0 Plex / Bioplex) on liver RNA
[2] = liver RNA, individual animals, Carbon Tetrachloride 200, Bromobenzene 785, Dexamethasone 1 mg/kg
[3] = liver, relative to the other pathologies

What does the source list for `Brc1ccccc1` [bromobenzene]?
Psma5 expression (Psma5): 2.2±0.8 fold vehicle control; Pcolce expression levels compared with fibrogenic compounds ([1]; liver): anti-correlated with corresponding gene expression levels induced by 4,4′-methylenedianiline and allyl alcohol; Differential Expression of A2m [1, 2]: −4.054 and −4.444 and −2.844 and −1.670; Differential Expression of Angptl3 [1, 2]: −0.864 and −1.104 and −0.499 and −0.518; Differential Expression of Anxa2 [1, 2]: 1.771 and 1.226 and 1.391 and 0.783; Differential Expression of Apoc [1, 2]: −0.325 and −0.372 and −0.172 and −0.338; Differential Expression of Arf6 [1, 2]: 0.324 and 0.475 and 0.461 and 0.239; Differential Expression of Arpc1b [1, 2]: −0.171 and −0.454 and −0.337 and −0.315; Differential Expression of Arrb1 [1, 2]: −1.220 and −1.482 and −0.627 and −2.254; Differential Expression of C1qb [1, 2]: −0.465 and −0.014 and 0.309 and 0.018; Differential Expression of CD9 [1, 2]: −0.072 and −0.052 and 0.416 and 0.476; Differential Expression of CD53 [1, 2]: −0.045 and −0.339 and 0.303 and −0.440; Differential Expression of CP [1, 2]: −1.055 and −0.969 and −0.530 and −1.250; Differential Expression of Capg [1, 2]: −0.835 and −0.762 and 0.053 and −1.140; Differential Expression of Ccl2 [1, 2]: −0.790 and −1.244 and −1.328 and −1.622; Differential Expression of Col1a1 [1, 2]: −0.659 and −0.336 and 0.149 and −0.231; Differential Expression of Col1a2 [1, 2]: −0.901 and −0.686 and −0.378 and −0.731; Differential Expression of Col4a1 [1, 2]: −0.512 and −0.387 and −0.163 and −0.340; Differential Expression of Col5a2 [1, 2]: −0.708 and −0.778 and −0.542 and −0.877; Differential Expression of Ctgf [1, 2]: −1.387 and −1.037 and −0.649 and −0.389; Differential Expression of Cxcl1 [1, 2]: −0.610 and −0.492 and −0.386 and −0.930; Differential Expression of Cxcl12 [1, 2]: −2.564 and −2.540 and −1.640 and −2.717; Differential Expression of Cxcl16 [1, 2]: −0.140 and −1.150 and −0.275 and −0.468; Differential Expression of Cyba [1, 2]: −0.761 and −0.590 and 0.049 and −0.752; Differential Expression of Cyp2c11 [1, 2]: −7.760 and −8.696 and −7.411 and −6.882; Differential Expression of Dsc2 [1, 2]: 0.800 and 0.827 and 0.610 and 0.624; Differential Expression of Fam102b [1, 2]: −0.808 and −0.338 and −0.148 and −0.780; Differential Expression of Fam105a [1, 2]: −0.461 and −0.047 and 0.188 and −0.207; Differential Expression of Fbn1 [1, 2]: −1.303 and −1.090 and −0.632 and −1.013; Differential Expression of Fn1 [1, 2]: −1.880 and −1.522 and −1.313 and −1.481; Differential Expression of Fstl1 [1, 2]: −1.078 and −0.899 and −0.423 and −1.140; Differential Expression of Fxyd5 [1, 2]: −0.189 and −0.159 and 0.283 and −0.184; Differential Expression of Gpnmb [1, 2]: 1.906 and 1.987 and 2.373 and 1.454; Differential Expression of Igfals [1, 2]: −2.524 and −2.336 and −2.083 and −3.007; Differential Expression of Igfbp1 [1, 2]: 3.275 and 3.897 and 0.758 and 3.616; Differential Expression of Igfbp2 [1, 2]: 0.339 and 0.249 and −0.180 and 0.559; Differential Expression of Igfbp3 [1, 2]: −2.127 and −1.911 and −1.316 and −1.713; Differential Expression of Itga1 [1, 2]: −0.672 and −0.525 and 0.257 and −0.880; Differential Expression of Itgb2 [1, 2]: −0.722 and −0.914 and −0.301 and −1.032; Differential Expression of Lame2 [1, 2]: −0.725 and −1.692 and −0.854 and −1.188; Differential Expression of Lbp [1, 2]: 0.157 and 0.036 and 0.207 and −0.066; Differential Expression of Len2 [1, 2]: −0.682 and −0.719 and −0.661 and −1.007; Differential Expression of Lgals1 [1, 2]: −0.856 and −0.388 and −0.455 and −0.084; Differential Expression of Lgals3 [1, 2]: 1.367 and 0.936 and 1.432 and 0.867; Differential Expression of Lgals3bp [1, 2]: −0.415 and −0.105 and 0.126 and −0.427; Differential Expression of Lox [1, 2]: −1.197 and −1.023 and −0.699 and −0.615; Differential Expression of Lrp1 [1, 2]: −1.297 and −1.003 and −0.323 and −1.011; Differential Expression of Lum [1, 2]: −0.152 and −0.296 and −0.116 and −0.530; Differential Expression of Mmp2 [1, 2]: −0.086 and 0.177 and 0.235 and −0.151; Differential Expression of Nid1 [1, 2]: −0.460 and −0.132 and 0.014 and −0.579; Differential Expression of Pcolce [1, 2]: −1.230 and −0.974 and −0.145 and −1.087; Differential Expression of Pkm2 [1, 2]: −0.142 and −0.085 and 0.069 and −0.110; Differential Expression of Plat [1, 2]: 0.202 and 0.005 and 0.027 and 0.084; Differential Expression of Plau [1, 2]: −1.049 and −0.402 and −0.470 and −1.553; Differential Expression of Plod2 [1, 2]: −0.446 and −0.410 and −0.613 and −0.623; Differential Expression of RT1-DMa [1, 2]: −0.569 and −0.589 and 0.149 and −0.606; Differential Expression of RT1-Da [1, 2]: −0.205 and −0.563 and 0.533 and −0.554; Differential Expression of S100A6 [1, 2]: −0.521 and 0.005 and −0.682 and 0.207; Differential Expression of S100A11 [1, 2]: −0.356 and −0.292 and 0.061 and −0.441; Differential Expression of Serpine1 [1, 2]: 0.153 and 0.825 and −0.550 and 0.552; Differential Expression of Serping1 [1, 2]: −1.107 and −0.925 and −0.627 and −0.678; Differential Expression of Slc25a24 [1, 2]: −0.143 and 0.149 and 0.189 and −0.325; Differential Expression of Sod2 [1, 2]: 0.200 and −0.035 and 0.134 and 0.187; Differential Expression of TagIn2 [1, 2]: −0.669 and −0.625 and 0.147 and −0.816; Differential Expression of Tgfb1 [1, 2]: −0.596 and −0.528 and −0.330 and −0.639; Differential Expression of Timp1 [1, 2]: −0.428 and −0.191 and −0.231 and −0.056; Differential Expression of Vhl [1, 2]: 0.043 and −0.096 and −0.334 and −0.363; Differential Expression of Vim [1, 2]: −0.148 and −0.045 and −0.109 and −0.327; Differential Expression of Vtn [1, 2]: −1.353 and −1.261 and −0.746 and −0.854; Panel genes downregulated (and upregulated in fibrogenic chemical-dose groups) ([1]; liver, 67-gene panel, 1.5-fold threshold): 12 genes; A2m expression [1, 3]: downregulated; Lcn2 expression [1, 3]: downregulated; Pcolce expression [1, 3]: downregulated
